Laboratory results as given in ChEMBL document CHEMBL1201862, “PubChem BioAssay data set” (2004).
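These data come from cells grown in 96-well plates and exposed to compound for 48 hours at five concentrations. The concentration for 50% growth inhibition is given as GI50.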 Activity calls are given as the source filed them. No stated cut-off is given here; in the data, active = GI50 up to about 1.1 µM and inactive = higher.

Assays:
Assay in all cases: DTP human tumour cell line panel, 48 h
[1] = system: A549
[2] = system: SF-295
[3] = system: UO-31
[4] = system: RXF 393
[5] = system: SR
[6] = system: CAKI-1
[7] = system: SN12C
[8] = system: MDA-MB-231
[9] = system: T47D
[10] = system: NCI/ADR-RES
[11] = system: NCI-H226
[12] = system: COLO 205
[13] = system: HT-29
[14] = system: M14
[15] = system: UACC-257
[16] = system: OVCAR-8
[17] = system: HL-60
[18] = system: MOLT-4
[19] = system: Hs-578T
[20] = system: OVCAR-4
[21] = system: A498
[22] = system: U-251
[23] = system: SK-OV-3
[24] = system: SK-MEL-5
[25] = system: LOX IMVI
[26] = system: CCRF-CEM
[27] = system: HCT-116
[28] = system: OVCAR-5
[29] = system: K562
[30] = system: SW-620
[31] = system: SF-268
[32] = system: RPMI-8226
[33] = system: EKVX
[34] = system: SNB-19
[35] = system: Malme-3M
[36] = system: KM12
[37] = system: ACHN
[38] = system: SF-539
[39] = system: NCI-H522
[40] = system: 786-0
[41] = system: MCF7
[42] = system: HOP-62
[43] = system: PC-3
[44] = system: TK-10
[45] = system: OVCAR-3
[46] = system: NCI-H23
[47] = system: HCT-15
[48] = system: UACC-62
[49] = system: MDA-N
[50] = system: NCI-H460
[51] = system: BT-549
[52] = system: HOP-92
[53] = system: IGROV-1
[54] = system: SNB-75
[55] = system: DU-145
[56] = system: MDA-MB-435
[57] = system: SK-MEL-28
[58] = system: HCC 2998
[59] = system: SK-MEL-2

In the case of `C[Si](C)(C)C#Cc1cc(-c2nc3ccccc3s2)ccc1N`, the GI50 [1] is reported as 19.4 µM (inactive), the GI50 [2] is reported as 18.6 µM (inactive) and the GI50 [3] is reported as 13.4 µM (inactive). For the same compound, the GI50 [4] was 17.5 µM (inactive), the GI50 [5] was 26.4 µM (inactive) and the GI50 [6] was 14.2 µM (inactive). For the same compound, the GI50 [7] was 15.5 µM (inactive), the GI50 [8] was 17.2 µM (inactive) and the GI50 [9] was 18.7 µM (inactive). For the same compound, the GI50 [10] was 17.5 µM (inactive), the GI50 [11] was 14.4 µM (inactive) and the GI50 [12] was 15.5 µM (inactive). For the same compound, the GI50 [13] was 20.1 µM (inactive), the GI50 [14] was 16.5 µM (inactive) and the GI50 [15] was 19.5 µM (inactive). The GI50 [16] was 16.7 µM (inactive), the GI50 [17] was 23.3 µM (inactive) and the GI50 [18] was 29.2 µM (inactive). The GI50 [19] was 20.8 µM (inactive), the GI50 [20] was 14.9 µM (inactive) and the GI50 [21] was 19.9 µM (inactive). The GI50 [22] was 19.2 µM (inactive), the GI50 [23] was 19 µM (inactive) and the GI50 [24] was 15.5 µM (inactive). The GI50 [25] was 17.8 µM (inactive), the GI50 [26] was 21.7 µM (inactive) and the GI50 [27] was 13.7 µM (inactive). For the same compound, the GI50 [28] was 16.5 µM (inactive), the GI50 [29] was 27.8 µM (inactive) and the GI50 [30] was 18.1 µM (inactive). For the same compound, the GI50 [31] was 16.8 µM (inactive), the GI50 [32] was 21.8 µM (inactive) and the GI50 [33] was 12 µM (inactive). For the same compound, the GI50 [34] was 18.7 µM (inactive), the GI50 [35] was 3.35 µM (inactive) and the GI50 [36] was 15.2 µM (inactive). For the same compound, the GI50 [37] was 15.7 µM (inactive), the GI50 [38] was 18.7 µM (inactive) and the GI50 [39] was 13.9 µM (inactive). For the same compound, the GI50 [40] was 17 µM (inactive), the GI50 [41] was 0.491 µM (active) and the GI50 [42] was 16.2 µM (inactive). The GI50 [43] was 16.2 µM (inactive), the GI50 [44] was 11.7 µM (inactive) and the GI50 [45] was 17.3 µM (inactive). For the same compound, the GI50 [46] was 18.5 µM (inactive), the GI50 [47] was 16.9 µM and the GI50 [48] was 16.3 µM (inactive). For the same compound, the GI50 [49] was 17.8 µM (inactive), the GI50 [50] was 15.9 µM (inactive) and the GI50 [51] was 18.3 µM (inactive). The GI50 [52] was 11.5 µM (inactive), the GI50 [53] was < 0.01 µM (active) and the GI50 [54] was 12.7 µM (inactive). For the same compound, the GI50 [55] was 26.6 µM (inactive) and the GI50 [56] was 18.3 µM (inactive).
`COc1ccc(N2C(=O)CC(C3CC(C(C)(C)C)CCC3=O)C2=O)cc1` (stereo not given) was tested, and the GI50 [1] was > 100 µM (inactive), the GI50 [3] was > 100 µM (inactive) and the GI50 [4] was > 100 µM (inactive). For the same compound, the GI50 [5] was > 100 µM (inactive), the GI50 [6] was > 100 µM (inactive) and the GI50 [7] was > 100 µM (inactive). For the same compound, the GI50 [57] was > 100 µM (inactive), the GI50 [8] was > 100 µM (inactive) and the GI50 [9] was > 100 µM (inactive). The GI50 [10] was > 100 µM (inactive), the GI50 [11] was > 100 µM (inactive) and the GI50 [12] was > 100 µM (inactive). The GI50 [13] was > 100 µM (inactive), the GI50 [14] was > 100 µM (inactive) and the GI50 [15] was > 100 µM (inactive). For the same compound, the GI50 [16] was > 100 µM (inactive), the GI50 [17] was > 100 µM (inactive) and the GI50 [18] was > 100 µM (inactive). For the same compound, the GI50 [19] was > 100 µM (inactive), the GI50 [20] was > 100 µM (inactive) and the GI50 [22] was > 100 µM (inactive). The GI50 [23] was > 100 µM (inactive), the GI50 [24] was > 100 µM (inactive) and the GI50 [26] was > 100 µM (inactive). For the same compound, the GI50 [27] was > 100 µM (inactive), the GI50 [29] was > 100 µM (inactive) and the GI50 [30] was > 100 µM (inactive). For the same compound, the GI50 [31] was > 100 µM (inactive), the GI50 [32] was > 100 µM (inactive) and the GI50 [33] was > 100 µM (inactive). For the same compound, the GI50 [34] was > 100 µM (inactive), the GI50 [36] was > 100 µM (inactive) and the GI50 [37] was > 100 µM (inactive). For the same compound, the GI50 [38] was > 100 µM (inactive), the GI50 [39] was 10.7 µM (inactive) and the GI50 [40] was > 100 µM (inactive). The GI50 [41] was > 100 µM (inactive), the GI50 [42] was > 100 µM (inactive) and the GI50 [43] was > 100 µM (inactive). The GI50 [44] was > 100 µM (inactive), the GI50 [46] was > 100 µM (inactive) and the GI50 [47] was > 100 µM. The GI50 [48] was > 100 µM (inactive), the GI50 [58] was > 100 µM (inactive) and the GI50 [49] was > 100 µM (inactive). The GI50 [50] was > 100 µM (inactive), the GI50 [51] was > 100 µM (inactive) and the GI50 [53] was > 100 µM (inactive). The GI50 [54] was > 100 µM (inactive), the GI50 [55] was > 100 µM (inactive) and the GI50 [56] was > 100 µM (inactive).
With `Cn1cc[n+](-c2cc(=O)n(C)c(=O)[n-]2)c1` the GI50 [1] was > 100 µM (inactive), the GI50 [3] was 44.3 µM (inactive) and the GI50 [4] was > 100 µM (inactive). The GI50 [5] was 27.9 µM (inactive), the GI50 [7] was > 100 µM (inactive) and the GI50 [57] was > 100 µM (inactive). The GI50 [8] was > 100 µM (inactive), the GI50 [9] was 92.3 µM (inactive) and the GI50 [10] was > 100 µM (inactive). For the same compound, the GI50 [11] was 91.8 µM (inactive), the GI50 [12] was 96.4 µM (inactive) and the GI50 [13] was > 100 µM (inactive). The GI50 [14] was > 100 µM (inactive), the GI50 [15] was > 100 µM (inactive) and the GI50 [17] was > 100 µM (inactive). For the same compound, the GI50 [18] was 77.8 µM (inactive), the GI50 [19] was 42.8 µM (inactive) and the GI50 [20] was 94.4 µM (inactive). The GI50 [21] was > 100 µM (inactive), the GI50 [22] was > 100 µM (inactive) and the GI50 [23] was > 100 µM (inactive). For the same compound, the GI50 [24] was 97.7 µM (inactive), the GI50 [25] was > 100 µM (inactive) and the GI50 [26] was > 100 µM (inactive). The GI50 [27] was > 100 µM (inactive), the GI50 [28] was > 100 µM (inactive) and the GI50 [29] was 81.8 µM (inactive). For the same compound, the GI50 [30] was > 100 µM (inactive), the GI50 [31] was > 100 µM (inactive) and the GI50 [32] was 96.8 µM (inactive). The GI50 [33] was 49.9 µM (inactive), the GI50 [34] was > 100 µM (inactive) and the GI50 [35] was > 100 µM (inactive). For the same compound, the GI50 [36] was > 100 µM (inactive), the GI50 [37] was > 100 µM (inactive) and the GI50 [38] was > 100 µM (inactive). For the same compound, the GI50 [40] was > 100 µM (inactive), the GI50 [41] was 93.5 µM (inactive) and the GI50 [42] was > 100 µM (inactive). For the same compound, the GI50 [43] was > 100 µM (inactive), the GI50 [44] was 31.8 µM (inactive) and the GI50 [45] was 80 µM (inactive). The GI50 [46] was > 100 µM (inactive), the GI50 [47] was > 100 µM and the GI50 [48] was > 100 µM (inactive). For the same compound, the GI50 [59] was > 100 µM (inactive), the GI50 [49] was > 100 µM (inactive) and the GI50 [50] was > 100 µM (inactive). The GI50 [51] was > 100 µM (inactive), the GI50 [52] was > 100 µM (inactive) and the GI50 [53] was > 100 µM (inactive). For the same compound, the GI50 [55] was > 100 µM (inactive) and the GI50 [56] was > 100 µM (inactive).
